Experimental data: US20030153538A1, “Antitumor agent” (The Nisshin OilliO, Ltd., priority 2000, published 2003)
“Also recorded” adds a separate entry of the source.

Tests used:
B-16 melanoma cells = assay: Tests for tumor cell-proliferation-inhibitory effect and tumor cell-extinction (cell growth rate from viable cell count); type: cell-based; details: for activity at 15 ppm / activity at 20 ppm / activity at 25 ppm / activity at 30 ppm / activity at 40 ppm / activity at 50 ppm / activity at 5 ppm: Mus musculus, B16, 144 h; for activity at 15 ppm / activity at 20 ppm / activity at 25 ppm / activity at 30 ppm / activity at 40 ppm / activity at 50 ppm / Cell Growth Rate / activity at 5 ppm: viable cell count vs control on 6th day; for activity at 15 ppm / activity at 20 ppm / activity at 25 ppm / activity at 5 ppm: read-out: Cell Growth Rate; for tumor cell-killing effect (in words): at not less than 2 times the concentration required for proliferation inhibition
Method: The tumor cell-proliferation-inhibitory effect and the tumor cell-killing or extinction effect can be determined according to the following method using B-16 melanoma cells.
More specifically, B-16 melanoma cells are inoculated in each well of a 6-well plate in a desired amount, followed by allowing the plate to stand at 37° C. and 5% carbon dioxide concentration to thus cultivate the cells, adding a sample solution to be tested (maslinic acid, erythrodiol, ursolic acid, uvaol, betulinic acid, betulin and physiologically acceptable salts thereof or derivatives thereof) to each well in an amount sufficient for achieving a desired concentration, on the next day or after 5 days from the initiation of the cultivation, determination of viable cell count on the 6th day after the initiation of the cultivation and calculation of the cell growth rate based on the viable cell count to thus evaluate the tumor cell-proliferation-inhibitory effect and the tumor cell-killing effect.
Tests for determining the tumor cell-proliferation-inhibitory effect and the tumor cell-killing effect were conducted according to the following method. To a 6-well plate, a culture medium was dispensed in an amount of 2 mL/well, B-16 melanoma cells were then inoculated in a desired quantity and thereafter the melanoma cells were cultivated by allowing the plate or the culture medium to stand at 37° C. and a carbon dioxide concentration of 5%. On the following day, a test sample solution prepared was added to and admixed with the content of each well to a desired concentration and the cultivation of the melanoma cells was continued. The culture medium was then exchanged on the 5th day from the initiation of the cultivation and the test sample solution was again added to each well. On the next day, the culture medium was removed to recover the cultivated melanoma cells, followed by washing the cells with PBS (phosphate buffered saline), determination of the viable cell count, and then calculation of the cell growth rate according to the following equation 1. The tumor cell-proliferation-inhibitory effect and the tumor cell-killing effect of each test sample were evaluated on the basis of the cell growth rate thus determined.
Cell Growth Rate (%)=(A/B)×100
As comparative examples, oleanolic acid, β-amyrin, α-amyrin and lupeol were added to the culture medium to thus determine and evaluate the cell growth rate by the same method used above.

B16 melanoma cells = assay: Test for malignant melanoma metastasis-inhibitory effect (lung metastasis after i.v. injection of B16 melanoma cells); type: in vivo, Whister female rats; details: rats; for RMI (rate of metastasis-inhibition): Oral Adm., every other day, lung lesions on 15th day; for tumor cell-metastasis-inhibitory effect compared with the control group (in words): metastasis of cancer to lung, summary of Table 2
Method: The tumor cell-metastasis-inhibitory effect can be evaluated according to, for instance, the malignant melanoma metastasis-inhibitory test. More specifically, a suspension of B16 melanoma cells prepared in advance is intravenously injected into Whister female rats, cotton seed oil in which each test substance is dissolved in a predetermined concentration is intraperitoneally administered through injection or orally administered using a sonde, every second day starting from 2nd day after the intravenous injection of the suspension. In this connection, only cotton seed oil is administered to the control group of animals. The lungs are extracted from these animals on the 15th day after the injection of the B16 melanoma cells, the lungs are examined to determine the number of cancer lesions thus metastasized to thus calculate the rate of metastasis-inhibition. The tumor cell-metastasis-inhibitory effect of each test sample is evaluated on the basis of the resulting rate of metastasis-inhibition.
Tests for evaluating the malignant melanoma metastasis-inhibitory effect of each test sample were conducted according to the following method. Whister female rats (6-week-old; average body weight: 160 g) were preliminarily bred with a powdery feed preparation having a composition of AIN-93 for one week, these animals were divided into 5 groups (8 animals per group) so as to equalize the average body weight and then a previously prepared suspension of B16 melanoma cells was intravenously injected into each rat. Subsequently, these animals were bred with a powdery feed preparation having a composition of AIN-93 and cotton seed oil in which each of maslinic acid, erythrodiol, ursolic acid, uvaol, betulinic acid, betulin, compounds of Synthetic Examples 1 and 2, or oleanolic acid had been dissolved in a predetermined concentration was intraperitoneally injected into each animal or orally administered thereto using a sonde, every other day starting from the 2nd day after the injection of the B 16 melanoma cells. In this connection, only cotton seed oil was administered to the control group. On the 15th day after the injection of the B 16 melanoma cells, the lung of each animal was taken out, the lungs were examined to determine the number of cancer lesions thus metastasized and to thus calculate the rate of metastasis-inhibition in accordance with the following equation 2. The tumor cell-metastasis-inhibitory effect of each test sample could be evaluated on the basis of the resulting rate of metastasis-inhibition.
Rate of Metastasis-Inhibition (%)=[(D−C)/D]×100
Wherein C: Average number of cancer lesions metastasized observed in each animal group; and D: average number of cancer lesions metastasized observed in the control group.
Maslinic acid, erythrodiol, ursolic acid, uvaol, betulinic acid, betulin and physiologically acceptable salts thereof or derivatives thereof as well as cotton seed oil as the control were inspected for the rate of metastasis-inhibition (RMI) using the dose and administration methods specified in the following Table 2. In addition, the same procedures used above were repeated except for using oleanolic acid as a comparative sample to thus evaluate the rate of metastasis-inhibition (RMI) thereof.

Compound | activity at 15 ppm (B-16 melanoma cells; 15 ppm) [%] | activity at 25 ppm (B-16 melanoma cells; 25 ppm) [%] | activity at 50 ppm (B-16 melanoma cells; 50 ppm) [%] | tumor cell-killing effect (in words) (B-16 melanoma cells) | tumor cell-proliferation-inhibitory effect (in words) (B-16 melanoma cells; summary of Table 1) | Cell Growth Rate (B-16 melanoma cells; 5 ppm) [%] | Cell Growth Rate (B-16 melanoma cells; 15 ppm) [%] | Cell Growth Rate (B-16 melanoma cells; 20 ppm) [%] | Cell Growth Rate (B-16 melanoma cells; 25 ppm) [%] | Cell Growth Rate (B-16 melanoma cells; 50 ppm) [%] | other results
C=C(C)[C@@H]1CC[C@]2(C)CC[C@]3(C)[C@H](CC[C@@H]4[C@@]5(C)CC[C@H](O)C(C)(C)[C@@H]5CC[C@]43C)[C@@H]12 [Lupeol, lupeol, reference compound] | 100 | 100 | 100 | not observed | do not possess any tumor cell-proliferation-inhibitory effect at all | – | – | – | – | – | activity at 20 ppm (B-16 melanoma cells; 20 ppm): 100%; activity at 30 ppm (B-16 melanoma cells; 30 ppm): 100%; activity at 40 ppm (B-16 melanoma cells; 40 ppm): 100%
2,3-O-di-triethylsilyl-maslinic acid triethylsilyl ester [Comp. Of Synthetic Ex. 3] | – | – | – | – | – | 93 | 54 | 21 | 0 | – | Cell Growth Rate (B-16 melanoma cells; 10 ppm): 75%
C[C@H]1[C@H](C)CC[C@]2(C)CC[C@]3(C)C(=CC[C@@H]4[C@@]5(C)CC[C@H](O)C(C)(C)[C@@H]5CC[C@]43C)[C@H]12 [α-Amyrin, α-amyrin, reference compound] | – | – | – | not observed | do not possess any tumor cell-proliferation-inhibitory effect at all | – | 100 | 100 | 100 | 100 | Cell Growth Rate (B-16 melanoma cells; 30 ppm): 100%; Cell Growth Rate (B-16 melanoma cells; 40 ppm): 100%
C=C(C)[C@@H]1CC[C@]2(CO)CC[C@]3(C)[C@H](CC[C@@H]4[C@@]5(C)CC[C@H](O)C(C)(C)[C@@H]5CC[C@]43C)[C@@H]12 [Betulin] | 78 | 72 | 63 | – | quite strong tumor cell-proliferation-inhibitory effects | – | – | – | – | – | activity at 5 ppm (B-16 melanoma cells; 5 ppm): 100%; RMI (rate of metastasis-inhibition) (B16 melanoma cells; 100 mg/body wt. (kg)): 38.9%; tumor cell-metastasis-inhibitory effect compared with the control group (in words) (B16 melanoma cells): significantly (P<0.05) inhibit any metastasis of cancer to lung
CC1(C)CC[C@]2(C(=O)O)CC[C@]3(C)C(=CC[C@@H]4[C@@]5(C)CC[C@H](O)C(C)(C)[C@@H]5CC[C@]43C)[C@@H]2C1 [Oleanolic acid, oleanolic acid, reference compound] | 100 | 100 | 94 | not observed | cannot inhibit the proliferation of the B-16 melanoma cells at all | – | – | – | – | – | activity at 20 ppm (B-16 melanoma cells; 20 ppm): 100%; activity at 30 ppm (B-16 melanoma cells; 30 ppm): 100%; activity at 40 ppm (B-16 melanoma cells; 40 ppm): 100%; tumor cell-proliferation-inhibitory effect (in words) (B-16 melanoma cells; summary of Table 1, listed as oleanolic acid): quite weak tumor cell-proliferation-inhibitory effect only at a higher concentration; RMI (rate of metastasis-inhibition) (B16 melanoma cells; 300 mg/body wt. (kg)): 9.2%; tumor cell-metastasis-inhibitory effect compared with the control group (in words) (B16 melanoma cells): does not possess any tumor cell-metastasis-inhibitory effect; also recorded: Any significant effect was not observed
C=C(C)[C@@H]1CC[C@]2(C(=O)O)CC[C@]3(C)[C@H](CC[C@@H]4[C@@]5(C)CC[C@H](O)C(C)(C)[C@@H]5CC[C@]43C)[C@@H]12 [Betulinic acid] | 77 | 58 | 38 | – | quite strong tumor cell-proliferation-inhibitory effects | – | – | – | – | – | activity at 5 ppm (B-16 melanoma cells; 5 ppm): 88%; RMI (rate of metastasis-inhibition) (B16 melanoma cells; 100 mg/body wt. (kg)): 51.2%; tumor cell-metastasis-inhibitory effect compared with the control group (in words) (B16 melanoma cells): significantly (P<0.05) inhibit any metastasis of cancer to lung
CC(=O)OC[C@]12CC[C@@H](C)[C@H](C)[C@H]1C1=CC[C@@H]3[C@@]4(C)CC[C@H](OC(C)=O)C(C)(C)[C@@H]4CC[C@@]3(C)[C@]1(C)CC2 [Comp. Of Synthetic Ex. 7, 3,28-O-di-acetyl-uvaol] | – | – | – | – | – | 85 | 71 | – | 54 | 42 | –
CC(=O)OCC12CCC(C)(C)CC1C1=CCC3C4(C)CCC(OC(C)=O)C(C)(C)C4CCC3(C)C1(C)CC2 (centres unmarked) [Comp. Of Synthetic Ex. 5, 3,28-O-di-acetyl-erythrodiol] | – | – | – | – | – | 68 | 23 | 0 | 0 | – | Cell Growth Rate (B-16 melanoma cells; 10 ppm): 50%
2,3-O-di-stearoyl-maslinic acid ethyl ester [Comp. Of Synthetic Ex. 4] | – | – | – | – | – | 100 | 52 | 13 | 0 | – | Cell Growth Rate (B-16 melanoma cells; 10 ppm): 82%
C=C(C)[C@@H]1CC[C@]2(C(=O)OCC)CC[C@]3(C)[C@H](CC[C@@H]4[C@@]5(C)CC[C@H](O)C(C)(C)[C@@H]5CC[C@]43C)[C@@H]12 [Comp. Of Synthetic Ex. 8, betulinic acid ethyl ester] | – | – | – | – | – | 96 | 81 | – | 69 | 53 | –
CC1(C)CC[C@]2(C)CC[C@]3(C)C(=CC[C@@H]4[C@@]5(C)CC[C@H](O)C(C)(C)[C@@H]5CC[C@]43C)[C@@H]2C1 [β-Amyrin, β-amyrin, reference compound] | – | – | – | not observed | do not possess any tumor cell-proliferation-inhibitory effect at all | – | 100 | 100 | 100 | 100 | Cell Growth Rate (B-16 melanoma cells; 30 ppm): 100%; Cell Growth Rate (B-16 melanoma cells; 40 ppm): 100%
C=C(C)[C@@H]1CC[C@]2(COC(C)=O)CC[C@]3(C)[C@H](CC[C@@H]4[C@@]5(C)CC[C@H](OC(C)=O)C(C)(C)[C@@H]5CC[C@]43C)[C@@H]12 [Comp. Of Synthetic Ex. 9, 3,28-O-di-acetyl-betulin] | – | – | – | – | – | 100 | 79 | – | 68 | 60 | –
CCOC(=O)[C@]12CC[C@@H](C)[C@H](C)[C@H]1C1=CC[C@@H]3[C@@]4(C)CC[C@H](O)C(C)(C)[C@@H]4CC[C@@]3(C)[C@]1(C)CC2 [Comp. Of Synthetic Ex. 6, ursolic acid ethyl ester] | – | – | – | – | – | 79 | 72 | – | 58 | 47 | –
